Laboratory results published in patent US5322698A, “Process for the preparation of a tablet or dragee composition containing a heat-, light- and moisture-sensitive active ingredient having monoclinic crystal structure” (priority 1990, dated 1994).
Structures can show the parent of a compound that is named as a salt. Where two headings read alike, the source gives them in different places.

Legend:
[1] = Clinical investigations: half life in blood and relative bioavailability; format: in vivo, human; conditions: for half-life: human, blood, read-out: half life measured in the blood (converted)
[2] = Storage experiments in the presence of moisture, heat and light load (wet-granulated tablets); format: physicochemical; conditions: in the wet-granulated tablet of Comparative Example 1
Text: The tablets obtained were subjected to storage experiments carried out in the presence of moisture and heat as well as light load.

[3] = antiarrhythmic reference drugs; Welling et al. 1985; cited from earlier work

Cc1cccc(C)c1NNC(=N)N(C)C [1-(2,6-Dimethylphenyl)-4,4'-dimethylaminoguanidine hydrochloride]
relative bioavailability ([1]; composition according to the invention, clinical): about 80% | half-life ([1]; composition according to the invention): 3.2 h | half-life ([1]; injectable composition containing the same active ingredient): 2.4 h

O=C1O[C@H]([C@@H](O)CO)C(O)=C1O [ascorbic acid]
prevention of decomposition process by antioxidant [2]: could not be prevented by ascorbic acid

C=C[C@H]1C[N@@]2CC[C@H]1C[C@@H]2[C@@H](O)c1ccnc2ccc(OC)cc12 [quinidine]
bioavailability [3]: 40 to 70%
